Data reported in patent US7662364B2, “Drug for hyperphospheremia and its preparative method” (priority 2006, dated 2010).
Like-named read-outs stand apart in the source and are kept apart here.

Conditions: for Removing phosphate %: 0.5 g in 100 ml, 37° C.
Procedure: Lanthanum carbonate 0.5 g was added to 0.85% NaCl solution 100 ml (pH 6.8) and 0.85% NaCl solution 100 ml (pH7.8), respectively. Then, sufficient quantities of Na2HPO4 were added to the two solutions, stirred at 37° C. Filtered solutions were obtained at 10 min, 30 min, 40 min and 60 min, respectively. Phosphate content was determined and the percentage of removing phosphate was computed.

O=C([O-])[O-].O=C([O-])[O-].O=C([O-])[O-].[La+3].[La+3] [Lanthanum carbonate]
Removing phosphate % (0.85% NaCl pH 6.8, 10 min): 6.7%
Removing phosphate % (0.85% NaCl pH 6.8, 30 min): 13.7%
Removing phosphate % (0.85% NaCl pH 6.8, 40 min): 16.9%
Removing phosphate % (0.85% NaCl pH 6.8, 60 min): 20.8%
Removing phosphate % (0.85% NaCl pH 7.8, 10 min): 1.4%
Removing phosphate % (0.85% NaCl pH 7.8, 30 min): <2.0%
Removing phosphate % (0.85% NaCl pH 7.8, 40 min): <2.0%
Removing phosphate % (0.85% NaCl pH 7.8, 60 min): <2.0%
phosphate removal, result in words (solution whose PH was similar to that of human large intestine (pH 7.8)): unable to remove phosphate
phosphate removal, result in words (solution whose PH was similar to that of human small intestine (pH 6.8)): removed less phosphate
